Source: ChEMBL document CHEMBL1201862, “PubChem BioAssay data set” (2004)
Blank lines part the entries; values can stand above or below the compound they belong to. Activity calls are given as the source filed them.

Key:
[1] = biological target: T1, Protein phosphatase methylesterase 1 (Homo sapiens, UniProt Q9Y570); assay: endogenous PME-1 and serine hydrolase inhibition – cell lysate, mouse brain cytosol, FP-rhodamine, gel ABPP, selectivity assay for PME-1 inhibitor project, dose response, panel member PME-1 Assay Panel member description: Inhibition of endogenously expressed PME-1 (AID 2366)
[2] = biological target: T1, Protein phosphatase methylesterase 1; assay: Late stage results from the probe development effort to identify inhibitors of the protein methylesterase PME-1: Gel-based Activity-Based Protein Profiling (ABPP) IC50: Purified enzyme.; assay type: functional
[3] = biological target: T2, Voltage-dependent T-type calcium channel subunit alpha-1H (Homo sapiens, UniProt O95180); assay type: functional
[4] = DRD fibroblast viability loss – cell-based, non-viral oncogenic, luminescence, dose response (AID 1934); assay type: functional; details: Homo sapiens
[5] = test system: BJ; assay: BJ-TERT fibroblast viability loss – cell-based, RAS-independent, luminescence, dose response (AID 1933); assay type: functional; details: Homo sapiens
[6] = biological target: T2, Voltage-dependent T-type calcium channel subunit alpha-1H; assay: Inhibitors of T-Type Calcium Channels. [Related pubchem assays (depositor defined):AID449739, AID463087, AID489005, AID493041, AID504579, AID504584, AID504619, AID504628]; assay type: functional
[7] = test system: BJ; assay: BJ-TERT-LT-ST fibroblast viability loss – cell-based, RAS-independent, luminescence, dose response (AID 1935); assay type: functional; details: Homo sapiens;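 further: BJ fibroblasts immortalized with TERT plus LT and ST oncogenes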
[8] = test system: BJ; assay: cells; assay type: functional, cell-based; details: Homo sapiens
[9] = NIH3T3 cell viability loss – ATP luminescence, mouse fibroblasts, counter-screen, dose response (AID 2010); assay type: functional, cell-based;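 further: cells exposed to compound for about 90 hours before reading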
[10] = test system: HeLa; assay: viability loss in HeLa cells – cell-based, 24 h, cherry-picked samples, cytotoxicity control, dose response (AID 504726); assay type: functional; details: Homo sapiens;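 further: potency for cytotoxicity as loss of luminescence signal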
[11] = test system: Salmon testes DNA; assay: acridine orange-DNA binding displacement – biochemical, fluorescence polarization, cherry-picked samples, set 2, artefact control for KSHV LANA DNA-binding inhibitor project, dose response (AID 504727); set-up: species or system Salmonidae
[12] = Trypanosoma cruzi growth suppression in host cells – NIH3T3 host cells, beta-gal luminescence, confirmation (AID 2044); assay type: functional, cell-based;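 further: intracellular parasites grown in NIH/3T3 mouse fibroblasts as host cells; luminescent beta-galactosidase reporter signal from transgenic T. cruzi replicating inside host cells; inhibitors lower the luminescence signal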
[13] = biological target: FAD-linked sulfhydryl oxidase ALR (Homo sapiens, UniProt P55789); assay: ALR-catalysed DTT oxidation blockers – biochemical, H2O2 detection, luminescence, cherry-pick, dose response (AID 493248)
[14] = biological target: Envelope glycoprotein gp160 (Human immunodeficiency virus 1, UniProt Q6QLK5); assay: cell-free HIV fusion peptide-binding blockers – biochemical, uHTS, fluorescence dequenching, […] (AID 1986)
[15] = test system: Staphylococcus aureus; assay: Inhibitors of Bacterial Quorum Sensing Structure Activity Relationship (SAR) Analysis: Dose Response Assay. [Related pubchem assays: 700, 527 ]; assay type: functional, organism-based
[16] = biological target: T3, Neuropeptides B/W receptor type 1 (Homo sapiens, UniProt P48145); assay: human NPBW1 receptor blockade, IC50 – cell-based, fluorescence, dose response, late-stage follow-up (AID 463251); assay type: functional
T3 sequence (P48145 whole entry): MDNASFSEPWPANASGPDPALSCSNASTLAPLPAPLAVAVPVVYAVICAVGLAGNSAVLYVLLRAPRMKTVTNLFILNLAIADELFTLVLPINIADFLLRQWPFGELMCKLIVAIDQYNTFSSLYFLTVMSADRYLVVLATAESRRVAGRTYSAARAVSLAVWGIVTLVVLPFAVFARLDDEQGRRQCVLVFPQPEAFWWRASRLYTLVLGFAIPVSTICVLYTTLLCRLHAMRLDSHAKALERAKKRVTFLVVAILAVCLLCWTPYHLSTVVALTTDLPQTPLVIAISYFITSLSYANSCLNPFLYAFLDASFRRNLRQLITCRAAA

[17] = biological target: Melanin-concentrating hormone receptor 1 (Homo sapiens, UniProt Q99705); assay: Late-stage fluorescence-based counterscreen for antagonists of the G-protein coupled receptor 7 (GPR7): cell-based dose response assay to identify antagonists of the melanin-concentrating hormone receptor 1 (MCHR1). [Related pubchem assays (depositor defined):AID1861, AID1880, AID1952, AID2148, AID2251, AID2257, AID485339]; assay type: functional;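 further: stimulated with 30 nM MCH peptide agonist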
Sequence of Melanin-concentrating hormone receptor 1 (Q99705 whole entry): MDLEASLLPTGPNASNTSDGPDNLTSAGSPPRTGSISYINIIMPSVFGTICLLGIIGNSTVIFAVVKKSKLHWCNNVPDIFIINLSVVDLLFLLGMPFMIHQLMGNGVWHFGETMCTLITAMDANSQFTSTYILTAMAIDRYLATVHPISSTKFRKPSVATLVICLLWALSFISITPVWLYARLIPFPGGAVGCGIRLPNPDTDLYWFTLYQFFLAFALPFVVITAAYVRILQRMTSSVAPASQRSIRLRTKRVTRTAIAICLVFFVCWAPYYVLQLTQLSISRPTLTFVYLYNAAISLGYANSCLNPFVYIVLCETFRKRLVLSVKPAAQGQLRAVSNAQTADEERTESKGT

T2 sequence (O95180 whole entry): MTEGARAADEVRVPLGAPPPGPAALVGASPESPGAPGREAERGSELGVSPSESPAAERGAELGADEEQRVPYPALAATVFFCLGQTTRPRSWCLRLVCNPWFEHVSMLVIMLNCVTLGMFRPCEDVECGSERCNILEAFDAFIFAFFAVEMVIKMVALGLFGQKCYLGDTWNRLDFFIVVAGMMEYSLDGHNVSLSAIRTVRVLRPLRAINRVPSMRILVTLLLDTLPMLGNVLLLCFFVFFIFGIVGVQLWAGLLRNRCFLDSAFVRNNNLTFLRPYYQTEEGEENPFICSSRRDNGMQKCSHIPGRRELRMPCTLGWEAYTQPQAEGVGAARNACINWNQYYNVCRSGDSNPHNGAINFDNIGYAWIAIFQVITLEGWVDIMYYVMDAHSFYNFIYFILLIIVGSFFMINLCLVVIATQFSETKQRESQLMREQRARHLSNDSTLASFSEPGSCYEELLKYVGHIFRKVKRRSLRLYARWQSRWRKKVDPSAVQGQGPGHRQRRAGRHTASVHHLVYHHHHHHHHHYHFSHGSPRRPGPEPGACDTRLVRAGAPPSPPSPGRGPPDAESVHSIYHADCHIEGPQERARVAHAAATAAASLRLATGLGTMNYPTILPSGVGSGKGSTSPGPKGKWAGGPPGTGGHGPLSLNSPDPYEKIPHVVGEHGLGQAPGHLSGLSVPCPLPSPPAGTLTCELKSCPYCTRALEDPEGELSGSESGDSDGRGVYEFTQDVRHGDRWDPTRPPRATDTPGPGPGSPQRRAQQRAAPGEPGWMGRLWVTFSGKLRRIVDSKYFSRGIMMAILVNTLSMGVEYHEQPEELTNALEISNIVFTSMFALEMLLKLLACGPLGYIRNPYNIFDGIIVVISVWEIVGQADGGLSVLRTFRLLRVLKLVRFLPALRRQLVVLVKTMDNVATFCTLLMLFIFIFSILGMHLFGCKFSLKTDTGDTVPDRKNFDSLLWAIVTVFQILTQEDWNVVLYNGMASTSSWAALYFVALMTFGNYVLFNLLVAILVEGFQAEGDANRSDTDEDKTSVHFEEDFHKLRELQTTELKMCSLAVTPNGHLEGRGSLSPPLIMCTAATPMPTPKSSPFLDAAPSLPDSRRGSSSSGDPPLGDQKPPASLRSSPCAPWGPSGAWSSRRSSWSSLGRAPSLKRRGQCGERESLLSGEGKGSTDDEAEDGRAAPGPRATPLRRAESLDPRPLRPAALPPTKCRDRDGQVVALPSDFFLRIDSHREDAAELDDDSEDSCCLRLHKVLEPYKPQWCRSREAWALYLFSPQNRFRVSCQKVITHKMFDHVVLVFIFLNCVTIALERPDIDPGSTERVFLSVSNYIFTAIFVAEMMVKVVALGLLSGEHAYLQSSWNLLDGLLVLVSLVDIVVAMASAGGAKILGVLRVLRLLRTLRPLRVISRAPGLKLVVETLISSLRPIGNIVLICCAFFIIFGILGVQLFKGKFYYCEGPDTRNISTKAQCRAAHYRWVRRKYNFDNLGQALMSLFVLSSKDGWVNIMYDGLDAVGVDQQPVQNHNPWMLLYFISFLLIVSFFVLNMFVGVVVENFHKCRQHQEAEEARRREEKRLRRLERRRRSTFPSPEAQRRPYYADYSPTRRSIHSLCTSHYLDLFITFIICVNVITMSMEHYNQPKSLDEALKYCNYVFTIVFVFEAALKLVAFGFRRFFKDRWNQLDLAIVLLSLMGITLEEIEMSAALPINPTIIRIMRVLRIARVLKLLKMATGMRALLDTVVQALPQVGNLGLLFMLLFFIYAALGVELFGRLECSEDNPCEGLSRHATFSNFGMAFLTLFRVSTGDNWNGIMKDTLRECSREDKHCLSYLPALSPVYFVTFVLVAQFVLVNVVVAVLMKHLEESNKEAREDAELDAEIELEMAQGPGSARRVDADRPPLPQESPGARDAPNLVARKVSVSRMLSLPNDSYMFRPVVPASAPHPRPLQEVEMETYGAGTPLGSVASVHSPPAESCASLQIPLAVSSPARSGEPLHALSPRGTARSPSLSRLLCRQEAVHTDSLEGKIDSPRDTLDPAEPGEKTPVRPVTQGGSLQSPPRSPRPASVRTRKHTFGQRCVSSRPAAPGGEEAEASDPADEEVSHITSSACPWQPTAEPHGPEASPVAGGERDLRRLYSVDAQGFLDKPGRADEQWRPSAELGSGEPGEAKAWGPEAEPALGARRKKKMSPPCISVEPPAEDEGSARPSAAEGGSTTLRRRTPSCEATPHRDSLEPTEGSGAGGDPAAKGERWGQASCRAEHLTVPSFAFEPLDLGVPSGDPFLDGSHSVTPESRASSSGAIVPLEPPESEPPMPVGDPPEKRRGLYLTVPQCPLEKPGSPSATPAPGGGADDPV
Sequence of FAD-linked sulfhydryl oxidase ALR (P55789 whole entry, the tested form may be a part): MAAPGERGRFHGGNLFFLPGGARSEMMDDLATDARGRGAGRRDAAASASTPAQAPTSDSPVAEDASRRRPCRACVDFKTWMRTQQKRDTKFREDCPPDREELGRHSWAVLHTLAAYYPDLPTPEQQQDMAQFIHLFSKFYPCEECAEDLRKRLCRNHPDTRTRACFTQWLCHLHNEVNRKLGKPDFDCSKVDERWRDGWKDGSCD
T1 sequence (Q9Y570 whole entry): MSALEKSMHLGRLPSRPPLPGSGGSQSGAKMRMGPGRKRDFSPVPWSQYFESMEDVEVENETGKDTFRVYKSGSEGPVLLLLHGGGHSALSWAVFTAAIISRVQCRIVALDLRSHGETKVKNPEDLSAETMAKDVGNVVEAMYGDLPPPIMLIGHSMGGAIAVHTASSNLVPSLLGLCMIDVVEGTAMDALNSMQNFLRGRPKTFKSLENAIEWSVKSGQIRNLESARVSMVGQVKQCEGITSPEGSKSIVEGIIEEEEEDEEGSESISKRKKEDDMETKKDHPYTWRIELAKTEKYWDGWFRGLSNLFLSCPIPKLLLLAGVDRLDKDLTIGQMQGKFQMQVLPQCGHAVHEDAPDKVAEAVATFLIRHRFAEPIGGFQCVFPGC
Sequence of Envelope glycoprotein gp160 (Q6QLK5 whole entry, the tested form may be a part): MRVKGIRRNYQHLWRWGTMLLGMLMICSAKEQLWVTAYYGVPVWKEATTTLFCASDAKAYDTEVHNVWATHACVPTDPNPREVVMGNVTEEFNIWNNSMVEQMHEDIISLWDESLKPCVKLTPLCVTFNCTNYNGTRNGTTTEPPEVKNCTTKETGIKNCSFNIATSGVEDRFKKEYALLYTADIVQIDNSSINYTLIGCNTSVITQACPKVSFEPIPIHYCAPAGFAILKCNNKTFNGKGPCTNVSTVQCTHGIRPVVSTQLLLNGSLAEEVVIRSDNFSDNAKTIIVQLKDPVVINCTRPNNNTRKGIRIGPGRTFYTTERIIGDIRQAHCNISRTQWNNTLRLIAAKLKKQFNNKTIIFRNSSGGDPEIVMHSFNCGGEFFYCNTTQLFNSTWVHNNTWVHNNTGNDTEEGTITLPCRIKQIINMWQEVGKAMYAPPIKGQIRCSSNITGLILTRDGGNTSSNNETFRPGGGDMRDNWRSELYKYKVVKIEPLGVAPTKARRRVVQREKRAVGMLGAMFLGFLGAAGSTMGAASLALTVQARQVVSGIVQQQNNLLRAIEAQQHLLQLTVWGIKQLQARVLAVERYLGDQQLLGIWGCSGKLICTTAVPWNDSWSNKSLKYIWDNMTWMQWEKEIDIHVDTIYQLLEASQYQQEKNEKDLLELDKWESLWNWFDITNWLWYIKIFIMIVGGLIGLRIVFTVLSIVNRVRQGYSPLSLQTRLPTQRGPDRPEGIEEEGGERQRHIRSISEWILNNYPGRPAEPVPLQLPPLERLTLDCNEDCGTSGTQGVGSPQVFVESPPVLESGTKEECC

IC50 [1]: > 20 µM (inactive)
IC50 [2]: > 20 µM (not active)
SMILES: CS(=O)(=O)/C(C#N)=C/c1ccc[nH]1

SMILES: Clc1ccc(Cn2ncc3c(NCc4ccco4)ncnc32)c(Cl)c1
EC50 [3]: 1.99 µM (active)
EC50 [4]: 12.3 µM (inconclusive)
EC50 [5]: 9.56 µM (inconclusive)
EC50 [6]: 9.5 µM (active)
EC50 [7]: > 150 µM (inconclusive)
EC50 [8]: > 150 µM (not active)

SMILES: NNc1nc(-c2ccccc2)cs1
EC50 [9]: 4.75 µM (active)
AC50 [10]: > 350 µM (inactive)
AC50 [11]: 58.7 µM (active)
EC50 [12]: 4.06 µM (active)
AC50 [13]: 5.04 µM (active)

IC50 [14]: > 99 µM (inactive)
SMILES: C/C(=C/CCC(C)C1CCC2(C)C3CCC4C(C)(C)C(=O)CCC4(C)C3=CCC12C)C(=O)O (stereo not drawn)

SMILES: COc1c(F)c(F)c(C(=O)O)c(Nc2ccc(C)cc2C)c1F
AC50 [13]: 15.9 µM (active)
IC50 [15]: 0.579 µM (active)

IC50 [16]: > 20 µM (inactive)
IC50 [17]: > 20 µM (inactive)
SMILES: COC(=O)/C=C/c1cnn(-c2ccc(C(C)C)cc2)c(=O)c1Oc1ccc(OC)cc1
